Measurements as given in patent publication US7727736B2, “Soluble phospholipids for use in clotting factor assays” (The University of North Carolina at Chapel Hill, priority 2003, dated 2010).
pKd: −log10 of the molar value.

Columns and labels:
[1] = CMC of C6PS using ANS as fluorescent probe in the presence of factor IXa; format: physicochemical; conditions: 200 nM factor IXa, 5 mM calcium
[2] = target: T1, prothrombinase complex (FXa-FVa) (Homo sapiens, UniProt P00742+P12259); experiment: Kinetics of prothrombin and MzIIa activation by C6PS- or membrane-assembled prothrombinase; format: biochemical
T1 construct: Human prothrombin and factor Xa; tissue Hematologic Technologies Inc. (factor Xa only); factor Xa purchased
Experimental: Fluorescence Stopped-Flow Measurements. The rates of thrombin formation from either MzIIa or Pre2 (with equimolar fragment 1.2), or of thrombin plus MzIIa formation from human prothrombin, were estimated from the time-dependent fluorescence change of DAPA bound to the activation products. […] Stopped-flow measurements were performed using an SLM-Aminco Milliflow® stopped flow reactor (Spectronic Instruments, Inc., Rochester, N.Y.) attached to the SLM 48000® spectrofluorometer (Spectronic Instruments) as described (Wu, et al. (2002) supra; Weinreb, et al. (2003) supra). […] The calculation of rates from measurements of initial fluorescence intensity (F0) and intensity at the completion of the reaction (F∞) is well-established (Nesheim and Mann (1983) supra; Wu, et al. (2002) supra).
Rapid Chemical Quench Measurements. […] Prothrombin solution in 50 mM Tris, 150 mM NaCl, 5 mM Ca^2+, 0.6% PEG (to limit thrombin adsorption to micro-plates), pH 7.5, was loaded into one sample loop, and pre-assembled prothrombinase complex (factor concentrations same as in stopped flow fluorescence studies) in the same buffer was loaded into another sample loop. […]

factor IXa = target: T2, factor IXa (Homo sapiens, UniProt P00740); experiment: Amidolytic activity of factor IXa with increasing C6PS; format: biochemical; conditions: 300 nM factor IXa, substrate Leu-PHG-Arg-pNA-AcOH; read-out: Kd from amidolytic activity of factor IXa
T2 construct: intrinsic tryptophan fluorescence of factor IXa
Experimental: The assay was conducted in the presence of 1 mM Leu-PHG-Arg-pNA.AcOH and increasing concentrations of C6PS.

T1 sequence (P00742 41-179 limits assumed): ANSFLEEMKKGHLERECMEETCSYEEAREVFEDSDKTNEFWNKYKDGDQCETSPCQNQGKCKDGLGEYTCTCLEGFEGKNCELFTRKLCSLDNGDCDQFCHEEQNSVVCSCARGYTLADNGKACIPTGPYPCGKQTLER
T1 sequence (P00742 235-488 limits assumed): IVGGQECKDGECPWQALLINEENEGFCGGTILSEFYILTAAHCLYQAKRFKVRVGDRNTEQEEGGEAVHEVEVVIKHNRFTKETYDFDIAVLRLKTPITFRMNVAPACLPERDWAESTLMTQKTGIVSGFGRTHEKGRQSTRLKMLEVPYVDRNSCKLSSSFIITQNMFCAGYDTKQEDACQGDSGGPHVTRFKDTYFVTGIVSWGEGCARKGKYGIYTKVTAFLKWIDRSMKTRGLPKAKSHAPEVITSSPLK
T1 sequence (P12259 29-737 limits assumed): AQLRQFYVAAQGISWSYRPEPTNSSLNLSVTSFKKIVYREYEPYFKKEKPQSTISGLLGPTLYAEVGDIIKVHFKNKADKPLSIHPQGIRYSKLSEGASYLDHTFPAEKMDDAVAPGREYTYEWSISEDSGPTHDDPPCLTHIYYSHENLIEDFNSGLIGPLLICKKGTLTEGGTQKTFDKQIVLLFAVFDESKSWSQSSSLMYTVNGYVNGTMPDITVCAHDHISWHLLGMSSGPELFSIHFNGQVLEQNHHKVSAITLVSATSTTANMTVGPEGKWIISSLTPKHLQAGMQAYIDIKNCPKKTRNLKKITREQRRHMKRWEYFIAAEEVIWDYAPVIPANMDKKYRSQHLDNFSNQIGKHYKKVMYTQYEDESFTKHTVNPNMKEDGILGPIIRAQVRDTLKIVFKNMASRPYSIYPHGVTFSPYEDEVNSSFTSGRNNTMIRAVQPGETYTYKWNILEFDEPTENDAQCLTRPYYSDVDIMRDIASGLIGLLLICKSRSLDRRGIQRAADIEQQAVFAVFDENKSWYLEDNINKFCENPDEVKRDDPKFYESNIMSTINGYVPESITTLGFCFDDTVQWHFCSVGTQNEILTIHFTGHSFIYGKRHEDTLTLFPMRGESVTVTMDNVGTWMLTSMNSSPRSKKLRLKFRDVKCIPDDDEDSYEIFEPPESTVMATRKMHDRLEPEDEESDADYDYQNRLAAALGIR
T1 sequence (P12259 1574-2224 limits assumed): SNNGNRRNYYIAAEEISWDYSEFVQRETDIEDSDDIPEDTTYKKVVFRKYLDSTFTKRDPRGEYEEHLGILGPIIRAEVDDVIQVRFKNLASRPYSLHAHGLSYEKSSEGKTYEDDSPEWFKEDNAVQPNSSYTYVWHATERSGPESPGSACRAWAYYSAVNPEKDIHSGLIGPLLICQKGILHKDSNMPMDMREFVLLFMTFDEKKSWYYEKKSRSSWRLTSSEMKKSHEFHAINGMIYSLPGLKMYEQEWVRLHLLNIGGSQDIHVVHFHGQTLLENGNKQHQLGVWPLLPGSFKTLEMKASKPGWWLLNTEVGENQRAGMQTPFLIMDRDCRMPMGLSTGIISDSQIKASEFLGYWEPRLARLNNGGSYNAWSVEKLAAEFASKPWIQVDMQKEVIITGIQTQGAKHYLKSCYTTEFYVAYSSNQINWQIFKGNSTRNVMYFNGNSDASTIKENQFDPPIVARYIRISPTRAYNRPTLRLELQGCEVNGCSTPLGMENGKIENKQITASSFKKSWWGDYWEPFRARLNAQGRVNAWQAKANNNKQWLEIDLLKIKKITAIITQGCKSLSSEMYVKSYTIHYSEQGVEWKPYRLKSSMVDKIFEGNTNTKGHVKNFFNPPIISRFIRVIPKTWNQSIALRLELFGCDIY
T2 sequence (P00740 47-191 limits assumed): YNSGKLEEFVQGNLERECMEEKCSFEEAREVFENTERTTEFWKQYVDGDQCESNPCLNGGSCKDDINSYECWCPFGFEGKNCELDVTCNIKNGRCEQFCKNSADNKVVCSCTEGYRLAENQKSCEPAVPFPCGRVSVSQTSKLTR
T2 sequence (P00740 227-461 limits assumed): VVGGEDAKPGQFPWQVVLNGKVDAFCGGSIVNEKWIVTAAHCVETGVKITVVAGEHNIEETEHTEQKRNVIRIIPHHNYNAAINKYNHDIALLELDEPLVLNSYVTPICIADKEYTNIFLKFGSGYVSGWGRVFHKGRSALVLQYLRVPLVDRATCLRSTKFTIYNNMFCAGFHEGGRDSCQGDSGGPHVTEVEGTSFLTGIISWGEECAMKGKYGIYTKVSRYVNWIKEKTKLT

## CCCCCC(=O)OC[C@H](COP(=O)(O)OC[C@H](N)C(=O)O)OC(=O)CCCCC [C6PS, 1,2-dicaproyl-sn-glycero-3-phospho-L-serine]
[1]
  CMC of C6PS: 950 µM
[2]; 400 μM C6PS, FXa 1 nM, FVa2 5 nM
  fraction of prothrombin converted directly (channeled) to thrombin: 58%
[2]; C6PS with FVa2 vs membrane with FVa
  activation by C6PS-assembled complex relative to literature membrane complex: an order of magnitude faster
Factor IXa
  pKd: 3.89
